Experiments:
[1] = system: Rattus norvegicus; experiment: In vivo inhibition of angiotensin I-induced pressor response after iv administration in normotensive rats; type: functional
[2] = target: T1, Angiotensin-converting enzyme (Oryctolagus cuniculus, UniProt P12822); experiment: In vitro inhibition of rabbit lung Angiotensin I converting enzyme (ACE) using Hippuryl-His-Leu as substrate
T1 sequence (P12822 whole entry): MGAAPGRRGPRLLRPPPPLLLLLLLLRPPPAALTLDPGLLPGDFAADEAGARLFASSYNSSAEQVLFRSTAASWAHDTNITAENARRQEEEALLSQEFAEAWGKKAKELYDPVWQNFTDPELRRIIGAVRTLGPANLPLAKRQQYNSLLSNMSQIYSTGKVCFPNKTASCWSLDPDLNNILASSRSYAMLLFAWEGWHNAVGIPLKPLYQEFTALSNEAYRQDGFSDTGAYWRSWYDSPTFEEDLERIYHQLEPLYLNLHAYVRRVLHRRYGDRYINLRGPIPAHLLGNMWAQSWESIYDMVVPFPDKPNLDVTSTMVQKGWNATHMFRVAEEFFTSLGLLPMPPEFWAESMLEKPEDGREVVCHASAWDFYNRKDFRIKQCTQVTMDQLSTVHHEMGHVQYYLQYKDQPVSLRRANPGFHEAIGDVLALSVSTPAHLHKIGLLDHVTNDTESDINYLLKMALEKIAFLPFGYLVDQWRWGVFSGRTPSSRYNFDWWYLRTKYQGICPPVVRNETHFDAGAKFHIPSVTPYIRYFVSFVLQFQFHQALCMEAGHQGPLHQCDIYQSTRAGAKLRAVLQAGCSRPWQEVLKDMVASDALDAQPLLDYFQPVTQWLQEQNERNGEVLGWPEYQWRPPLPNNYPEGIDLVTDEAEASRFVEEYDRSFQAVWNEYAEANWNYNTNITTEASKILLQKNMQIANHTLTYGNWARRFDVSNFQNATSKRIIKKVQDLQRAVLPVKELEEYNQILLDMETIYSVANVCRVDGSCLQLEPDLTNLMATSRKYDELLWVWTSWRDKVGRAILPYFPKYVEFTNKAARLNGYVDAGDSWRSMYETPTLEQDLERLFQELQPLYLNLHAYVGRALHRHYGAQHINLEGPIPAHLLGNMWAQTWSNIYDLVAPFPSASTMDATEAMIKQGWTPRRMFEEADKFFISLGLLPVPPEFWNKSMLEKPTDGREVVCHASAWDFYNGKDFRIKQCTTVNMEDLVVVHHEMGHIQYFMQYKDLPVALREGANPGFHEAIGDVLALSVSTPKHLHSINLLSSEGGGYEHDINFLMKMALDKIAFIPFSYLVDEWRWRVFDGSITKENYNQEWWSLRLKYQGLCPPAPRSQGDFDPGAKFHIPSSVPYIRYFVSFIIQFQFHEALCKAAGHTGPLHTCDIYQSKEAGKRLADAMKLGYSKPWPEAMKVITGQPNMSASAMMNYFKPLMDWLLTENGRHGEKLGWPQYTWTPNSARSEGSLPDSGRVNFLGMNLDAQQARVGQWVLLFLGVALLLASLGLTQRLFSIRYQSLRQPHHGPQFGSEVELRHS

[3] = target: T2, Neprilysin (Rattus norvegicus, UniProt P07861); experiment: In vitro inhibition of rat kidney neutral endopeptidase (NEP) by fluorometric assay using Dansyl-Gly-Phe-Arg as substrate
T2 sequence (P07861 whole entry): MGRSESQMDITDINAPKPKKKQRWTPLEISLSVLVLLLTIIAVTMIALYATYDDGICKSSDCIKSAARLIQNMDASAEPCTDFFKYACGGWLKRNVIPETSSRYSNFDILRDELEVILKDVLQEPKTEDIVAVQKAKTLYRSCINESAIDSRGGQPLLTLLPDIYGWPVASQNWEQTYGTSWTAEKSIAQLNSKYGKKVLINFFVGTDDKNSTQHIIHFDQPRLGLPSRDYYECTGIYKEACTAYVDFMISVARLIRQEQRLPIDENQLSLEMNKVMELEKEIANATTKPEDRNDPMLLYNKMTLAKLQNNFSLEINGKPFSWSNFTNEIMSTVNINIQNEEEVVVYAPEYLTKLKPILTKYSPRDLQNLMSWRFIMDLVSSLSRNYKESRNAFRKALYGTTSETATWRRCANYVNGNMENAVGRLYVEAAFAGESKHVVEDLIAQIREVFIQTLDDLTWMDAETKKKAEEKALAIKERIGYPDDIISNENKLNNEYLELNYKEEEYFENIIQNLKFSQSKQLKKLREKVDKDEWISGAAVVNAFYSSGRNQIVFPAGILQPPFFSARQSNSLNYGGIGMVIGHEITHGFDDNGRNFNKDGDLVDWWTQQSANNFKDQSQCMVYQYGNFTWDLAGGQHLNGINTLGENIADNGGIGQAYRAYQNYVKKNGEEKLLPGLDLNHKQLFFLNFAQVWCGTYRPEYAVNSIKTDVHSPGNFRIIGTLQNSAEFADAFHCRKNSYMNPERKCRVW

[4] = system: Rattus norvegicus; experiment: In vivo inhibition of angiotensin- 1 induced pressor response after iv administration in normotensive rats; type: functional

Compound	ED50 [1] [µmol/kg]	IC50 [2] [nM]	IC50 [3] [nM]	ED50 [4] [µmol/kg]
C[C@H](NC(=O)[C@@H](S)Cc1ccccc1)C(=O)N1CCC[C@H]1C(=O)O	0.06	30	400	
C[C@H](NC(=O)[C@@H](CS)Cc1ccc(OCc2ccccc2)cc1)C(=O)N1CCC[C@@H]1C(=O)O		880	40	
C[C@H](NC(=O)[C@@H](CS)Cc1ccccc1)C(=O)N1CCC[C@H]1C(=O)O	0.5	4	6.6	
C[C@H](NC(=O)C(CS)CCc1ccccc1)C(=O)N1CCC[C@@H]1C(=O)O (stereo not given in full)		290	160	
C[C@H](NC(=O)[C@@H](CS)Cc1ccccc1)C(=O)N1C[C@H](C2CCCCC2)C[C@H]1C(=O)O	2.5	18	6.6	
C[C@H](CS)C(=O)N[C@@H](C)C(=O)N1CCC[C@@H]1C(=O)O		1800	140	
C[C@H](NC(=O)[C@@H](CS)Cc1ccccc1)C(=O)N1Cc2ccccc2C[C@H]1C(=O)O	0.57	14	3.9	
C[C@H](NC(=O)[C@H](CS)Cc1ccccc1)C(=O)N1CCC[C@H]1C(=O)O	8.1	210	45	
C[C@H](NC(=O)[C@@H](CS)Cc1ccccc1Cl)C(=O)N1CCC[C@@H]1C(=O)O	2.6	25	2.2	
C[C@H](NC(=O)[C@H](Cc1ccccc1)[C@@H](C)S)C(=O)N1CCC[C@H]1C(=O)O	> 5	78	182	
C[C@H](NC(=O)[C@@H](CS)Cc1ccccc1)C(=O)N1c2ccccc2C[C@H]1C(=O)O	0.15	7.8	2.6	
C[C@H](NC(=O)[C@H](Cc1ccccc1)[C@H](C)S)C(=O)N1CCC[C@H]1C(=O)O		452	32	
C[C@H](NC(=O)[C@@H](CS)Cc1ccccc1)C(=O)N1C[C@@H](Sc2ccccc2)C[C@H]1C(=O)O	0.78	8.7	1.6	
Cc1ccccc1C[C@H](CS)C(=O)N[C@@H](C)C(=O)N1CCC[C@@H]1C(=O)O	4.2	69	6.2	
CC(C)CC(CS)C(=O)N[C@@H](C)C(=O)N1CCC[C@@H]1C(=O)O (stereo not given in full)		490	10	
O=C(N[C@@H](Cc1c[nH]c2ccccc12)C(=O)N1CCC[C@H]1C(=O)O)[C@@H](CS)Cc1ccccc1	6.4	10	25	
CC(C)C[C@H](NC(=O)[C@@H](S)Cc1ccccc1)C(=O)O		1600		
CC(C)C[C@H](NC(=O)[C@@H](CS)Cc1ccccc1)C(=O)O		37		
O=C(O)CCNC(=O)[C@@H](CS)Cc1ccccc1		32000	9.4	
C[C@H](NC(=O)[C@H](S)Cc1ccccc1)C(=O)N1CCC[C@H]1C(=O)O	0.03	80	285	
C[C@H](NC(=O)[C@@H](CS)Cc1ccccc1)C(=O)O		120		15
CCC[C@H](NC(=O)[C@@H](CS)Cc1ccccc1)C(=O)N1CCC[C@H]1C(=O)O	2.2	10	2	

Reference: ChEMBL document CHEMBL1127936, “Mercaptoacyl dipeptides as dual inhibitors of angiotensin-converting enzyme and neutral endopeptidase. Preliminary structure-activity studies” (Bioorg Med Chem Lett, 1994)
